Assay results: patent US7049340B1, “Neuroprotective and retinoprotective ophthalmologic drugs” (priority 1999, dated 2006)
Several values for one entry are separate records, joined by “and”; a condition that tells them apart may be missing. Equal entries are not always repeated.

Assays:
Type in all cases: in vivo, human
[1] = system: patients with age-related macular degeneration; assay: Clinical treatment of age-related macular degeneration (ARMD): visual acuity
Description: (§1) The invention will now be illustrated by the following description of clinical examples which, of course, are not limiting in nature. In these examples the active principle, in particular ramipril, was administered continuously in an oral form, in an amount of 1.25 mg per day.
By way of example, visual acuity changed respectively from 0.16 to 0.3; 0.2 to 0.5; from 0.05 to 0.2 (right eye) and 0.05 to 0.15 (left eye); from 0.2 to 0.4 (right eye) and from 0.5 to 0.8 (left eye); from 0.6 to 1; from 0.4 to 0.6 (right eye) and from 0.2 to 0.5 (left eye).

[2] = system: severely myopic patients with degenerative chorioretinopathy; assay: Clinical treatment of degenerative chorio-retinopathy in severe myopia: corrected visual acuity
Description: as §1
By way of example, visual acuity changed respectively: from simple light perception (LP) to 1/20 for the monophtalmic eye; from 2/10 (RE) 1/10 (LE) to 5/10 (RE) and 5/10 (LE); from 1.5/10 to 3/10; from 1/20 (both eyes) to 2/10 (RE) and 1/10 (LE); from 1/10 (RE) and 1/10 (LE) to 6/10 (RE) and 3/10 (LE). Clearly, the term RE used here means “right eye” and the term LE used here means “left eye”.

healthy subject = assay: General arterial pressure at doses that improve field of vision; settings: healthy subject
Text: Effective doses for producing effects in the ophtalmologic field are desirably lower than doses that would induce general arterial hypotension in a subject with normal pressure. Clearly, the doses that can be used can be higher in subjects with hypertension, although this is not necessary, since the desired effect is that obtained in the ophtalmologic field.

[3] = system: patient with pseudovitelliform dystrophy; assay: Clinical treatment of adult pseudo-vitelliform dystrophy: visual acuity; settings: for visual acuity after treatment: one patient, one month
Description: as §1
(§2) Ramipril was used in the following three disorders: retinitis pigmentosa; Stargardt's disease, fundus flavimaculatus; adult pseudo-vitelliform dystrophy.
One patient was tested. Acuity improved in one month from 1.6 to 2/10 in the right eye and from 2/10 to 3/10 in the left eye. The activity of the ramipril in these hereditary dystrophies is unique.

[4] = system: patients with retinitis pigmentosa; assay: Clinical treatment of retinitis pigmentosa: visual acuity, automated perimetry, electroretinogram; settings: for visual acuity after treatment: 1.25 mg orally, two months; for Mean drop MD: normal −2..2; for Corr. Loss variance CLV: normal 0..4; for Loss variance LV: normal 0..6; for Mean sensitivity MS: sectorial retinitis pigmentosa
Description: as §1
FIGS. 5 and 6 reproduce the fields of vision of the left eye; FIGS. 7 and 8 reproduce the field of vision of the right eye as perceived by one of the treated patients who suffered from sectorial retinitis pigmentosa, respectively before treatment (FIGS. 5 and 7) and after treatment, two months later (FIGS. 6 and 8).
(§3) The grey scale provides an “image” of visual function, point by point, of different regions of the retina; the palest zones correspond to regions in which the visual functions are the least altered; the darkest zones correspond to those that have altered the most. […] A reduction in the darkest regions also indicates local visual recovery in regions that have become lighter.
(§4) The values that appear in the right hand portions of the figures correspond to the threshold values measured locally at set points in the retina. […] In contrast, the values that appear in the lower right hand portions of the figures correspond to local loss of vision in the zones concerned of the retina compared with the normal.
(§5) The Bebie curves also provide comparative images of the visual capacity of the subject under examination (lower curves) compared with the curves for normal or quasi-normal subjects (upper curves).
Three patients were treated with 1.25 mg of ramipril orally and their visual acuity improved in the space of two months: […]

[5] = system: patient with Stargardt's disease, fundus flavimaculatus; assay: Clinical treatment of Stargardt's flavimaculatus disease: visual acuity; settings: for visual acuity after treatment: one patient
Description: as §1, §2
One patient was treated; acuity improved from 1/20 to 1/10 in the right eye and from 1/50 to 3/10 in the left eye.

[6] = system: patients with central serous chorioretinopathy; assay: Clinical treatment of retinal epitheliopathy and central serous chorioretinopathy (CSCR); settings: in a few days to a few weeks
Description: as §1

[7] = system: patients with glaucomatous neuropathy; assay: Clinical treatment of glaucomatous neuropathy: visual acuity, automated perimetry, ocular tension; settings: for Mean drop MD: normal −2..2; for Corr. Loss variance CLV: normal 0..4; for Loss variance LV: normal 0..6; for visual acuity after treatment: most spectacular case
Description: as §1
FIGS. 1 and 2 reproduce the fields of vision of the left eye; FIGS. 3 and 4 reproduce the field of vision of the right eye as perceived by one of the treated patients who suffered from glaucomatous neuropathy, respectively before treatment (FIGS. 1 and 3) and after treatment, 10 days later (FIGS. 2 and 4).
as §3, §4, §5

For `CCOC(=O)[C@H](CCc1ccccc1)N[C@@H](C)C(=O)N1[C@H](C(=O)O)C[C@@H]2CCC[C@@H]21` [ramipril], the “visual acuity after treatment” value ([1]; case 1, before 0.16) was 0.3, the “visual acuity after treatment” value ([1]; case 2, before 0.2) was 0.5 and the “visual acuity after treatment” value ([1]; case 3, left eye, before 0.05) was 0.15. For the same molecule, the “visual acuity after treatment” value ([1]; case 3, right eye, before 0.05) was 0.2, the “visual acuity after treatment” value ([1]; case 4, left eye, before 0.5) was 0.8 and the “visual acuity after treatment” value ([1]; case 4, right eye, before 0.2) was 0.4. The “visual acuity after treatment” value ([1]; case 5, before 0.6) was 1, the “visual acuity after treatment” value ([1]; case 6, left eye, before 0.2) was 0.5 and the “visual acuity after treatment” value ([1]; case 6, right eye, before 0.4) was 0.6. The visual acuity ([1]; majority of patients, with or without sub-retinal neovessels) was “improved visual acuity”, the “visual acuity after treatment” value ([2]; case 1, monophtalmic eye, before simple light perception (LP)) was 1/20 and the “visual acuity after treatment” value ([2]; case 2, LE, before 1/10) was 5/10. For the same molecule, the “visual acuity after treatment” value ([2]; case 2, RE, before 2/10) was 5/10, the “visual acuity after treatment” value ([2]; case 3, before 1.5/10) was 3/10 and the “visual acuity after treatment” value ([2]; case 4, LE, before 1/20) was 1/10. For the same molecule, the “visual acuity after treatment” value ([2]; case 4, RE, before 1/20) was 2/10, the “visual acuity after treatment” value ([2]; case 5, LE, before 1/10) was 3/10 and the “visual acuity after treatment” value ([2]; case 5, RE, before 1/10) was 6/10. For the same molecule, the corrected visual acuity ([2]; even in a low dose, always, despite extremely severe myopic choroidosis) was “improvement in corrected visual acuity”, the “effect on arterial pressure of doses that improve field of vision” value (healthy subject) was “do not cause arterial hypertension” and the visual function ([3]; adult pseudo-vitelliform dystrophy, all cases) was “improvement in visual function”. For the same molecule, the “visual acuity after treatment” value ([3]; left eye, before 2/10) was 3/10, the “visual acuity after treatment” value ([3]; right eye, before 1.6) was 2/10 and the “visual acuity after treatment” value ([4]; first patient, right eye, before doubtful light perception) was 1/50. For the same molecule, the visual function ([4]; retinitis pigmentosa, all cases) was “improvement in visual function”, the “visual acuity after treatment” value ([4]; second patient, monophthalmic, before 2/10) was 5/10 and the “visual acuity after treatment” value ([4]; third patient (sectorial), left eye, before 1.6) was 4/10. The “visual acuity after treatment” value ([4]; third patient (sectorial), right eye, before 1.6) was 6/10, the “Mean drop MD” value ([4]; third patient, left eye after two months, Mean, before 10.3) was 6.5 dB and the “Corr. Loss variance CLV” value ([4]; third patient, left eye after two months, Mean, before 52.5) was 48.0 dB^2. For the same molecule, the “Mean drop MD” value ([4]; third patient, left eye after two months, Phase 1, before 9.8) was 6.2 dB, the “Loss variance LV” value ([4]; third patient, left eye after two months, Phase 1, before 60.6) was 51.8 dB and the “Mean drop MD” value ([4]; third patient, left eye after two months, Phase 2, before 9.6) was 7.0 dB. The “Loss variance LV” value ([4]; third patient, left eye after two months, Phase 2, before 52.8) was 63.9 dB, the “Mean drop MD” value ([4]; third patient, right eye after two months, Mean, before 10.6) was 8.8 dB and the “Corr. Loss variance CLV” value ([4]; third patient, right eye after two months, Mean, before 66.0) was 65.6 dB^2. For the same molecule, the “Mean drop MD” value ([4]; third patient, right eye after two months, Phase 1, before 10.2) was 8.7 dB, the “Loss variance LV” value ([4]; third patient, right eye after two months, Phase 1, before 70.4) was 67.5 dB and the “Mean drop MD” value ([4]; third patient, right eye after two months, Phase 2, before 11.5) was 9.2 dB. For the same molecule, the “Loss variance LV” value ([4]; third patient, right eye after two months, Phase 2, before 86.9) was 79.8 dB, the “Mean sensitivity MS” value ([4]; third patient, left eye after two months, Mean, before 16.8) was 19.9 and 20.9 and the “Mean sensitivity MS” value ([4]; third patient, left eye after two months, Phase 1, before 17.3) was 21.2. The “Mean sensitivity MS” value ([4]; third patient, left eye after two months, Phase 2, before 17.9) was 20.8, the “Mean sensitivity MS” value ([4]; third patient, right eye after two months, Mean, before 16.5) was 18 and 18.3 and the “Mean sensitivity MS” value ([4]; third patient, right eye after two months, Phase 1, before 16.8) was 18.4. For the same molecule, the “Mean sensitivity MS” value ([4]; third patient, right eye after two months, Phase 2, before 16.0) was 18.2, the electroretinogram ([4]; third patient, especially in the red and in the left eye) was “substantially improved” and the visual function ([5]; Stargardt's disease, fundus flavimaculatus, all cases) was “improvement in visual function”. The “visual acuity after treatment” value ([5]; left eye, before 1/50) was 3/10, the “visual acuity after treatment” value ([5]; right eye, before 1/20) was 1/10 and the “blister (retinal serous detachment)” value [6] was “reduction in the blister”. The “visual acuity and central field of vision” value [6] was “improvement in visual acuity and in the central field of vision”, the scotomas ([7]; automated perimetry) was “absolute scotomas became relative” and the “reduction of loss in mean sensitivity” value ([7]; automated perimetry, on average) was 30%. For the same molecule, the ocular tension ([7]; irregular amount) was “Significant reduction”, the “Mean drop MD” value ([7]; left eye after treatment (10 days), Mean, before 9.9) was 6.2 dB and the “Corr. Loss variance CLV” value ([7]; left eye after treatment (10 days), Mean, before 22.4) was 13.1 dB^2. For the same molecule, the “Mean sensitivity MS” value ([7]; left eye after treatment (10 days), Mean, before treatment 16.5) was 20.2, the “Mean drop MD” value ([7]; left eye after treatment (10 days), Phase 1, before 9.5) was 5.7 dB and the “Loss variance LV” value ([7]; left eye after treatment (10 days), Phase 1, before 26.8) was 16.8 dB. For the same molecule, the “Mean sensitivity MS” value ([7]; left eye after treatment (10 days), Phase 1, before treatment 16.9) was 20.0, the “Mean drop MD” value ([7]; left eye after treatment (10 days), Phase 2, before 9.4) was 6.8 dB and the “Loss variance LV” value ([7]; left eye after treatment (10 days), Phase 2, before 29.3) was 26.5 dB. The “Mean sensitivity MS” value ([7]; left eye after treatment (10 days), Phase 2, before treatment 17.3) was 20.0, the “visual acuity after treatment” value ([7]; LE, before 3/10) was 10/10 and the “visual acuity after treatment” value ([7]; RE, before 6/10) was 8/10. For the same molecule, the “Mean drop MD” value ([7]; right eye after treatment (10 days), Mean, before 9.5) was 4.8 dB, the “Corr. Loss variance CLV” value ([7]; right eye after treatment (10 days), Mean, before 21.8) was 13.1 dB^2 and the “Mean sensitivity MS” value ([7]; right eye after treatment (10 days), Mean, before treatment 16.9) was 21.6. The “Mean drop MD” value ([7]; right eye after treatment (10 days), Phase 1, before 9.0) was 4.1 dB, the “Loss variance LV” value ([7]; right eye after treatment (10 days), Phase 1, before 28.6) was 17.2 dB and the “Mean sensitivity MS” value ([7]; right eye after treatment (10 days), Phase 1, before treatment 17.4) was 22.2. For the same molecule, the “Mean drop MD” value ([7]; right eye after treatment (10 days), Phase 2, before 9.3) was 4.7 dB, the “Loss variance LV” value ([7]; right eye after treatment (10 days), Phase 2, before 21.0) was 10.4 dB and the “Mean sensitivity MS” value ([7]; right eye after treatment (10 days), Phase 2, before treatment 17.4) was 21.9.
